Article PMC8510344, “Bile-Acid-Appended Triazolyl Aryl Ketones: Design, Synthesis, In Vitro Anticancer Activity and Pharmacokinetics in Rats” (Molecules, 2021)

Columns and labels:
[1] = system: MCF-7 (human breast adenocarcinoma) cells; assay: MTT cytotoxicity assay, MCF-7; format: cell-based; details: Homo sapiens, MCF7, 10 µM, 48 h exposure, read-out: % Cell Viability at 10 µM MCF-7
Protocol: (§1) The cytotoxicity activity of all the conjugates (6aa–6df) was evaluated in vitro by MTT assay against two different breast cancer cell lines 4T1 (murine) and MCF-7 (human) and HEK 293 (human) as normal cell line. DTX was used as positive control. Cells were grown in DMEM supplemented with 10% FBS and 1% antibiotic solution and incubated at 5% CO2 and 37 °C for 24 h. The stock solutions of all the conjugates were prepared in DMSO and diluted for further use. Briefly, 5 × 10^3 cells/well were seeded in 96-well cell culture plates and allowed to adhere for 24 h. Cell inhibition (%) was determined after 48 h exposure to the compounds at 1–25 μM concentration. After 48 h, MTT assay was performed and the yellow tetrazolium salt (MTT) was reduced in metabolically active cells to form insoluble purple formazan crystals, which were solubilized by the addition of DMSO. The optical density (OD) was recorded at 560 nm and 630 nm as reference wavelength. Percentage cell inhibition was determined by comparison with untreated cells.

[2] = system: 4T1 (mouse mammary carcinoma) cells; assay: MTT cytotoxicity assay, 4T1; format: cell-based; details: for IC50: 48 h; for viability at 10 µM: 48 h exposure, read-out: % Cell Viability at 10 µM 4T1
Protocol: as §1

[3] = MTT cytotoxicity assay, normal cell line HEK 293; format: cell-based; details: human, HEK 293 cells, HEK 293 normal cells, 48 h exposure
Protocol: as §1

MCF-7 cells = assay: Annexin V/PI apoptosis assay by flow cytometry, MCF-7; format: cell-based, human; details: 6af at 2.61 µM, 6cf at 5.71 µM (respective IC50), 48 h
Protocol: (§2) The extent of apoptosis induced by compounds 6af and 6cf in MCF-7 and 4T1 cells was quantified by flow cytometry according to the manufacturer’s protocol. Briefly, cells were seeded in a 6-well plate at a cell density of 1 × 10^6 cells/well. After 24 h, the media was discarded and cells were treated with fresh media containing compounds 6af and 6cf at their respective IC50 concentrations for 48 h. After treatment, cells were trypsinized, harvested in PBS and collected by centrifugation for 5 min at 2000 rpm. Cells were then resuspended in 1X binding buffer and stained with FITC-labeled Annexin V Alexa Fluor 488 (5 μL) and propidium iodide (10 μL). Cells were analyzed using flow cytometer (Beckman Coulter), and data were analyzed with CytExpert software.

4T1 cells = assay: Annexin V/PI apoptosis assay by flow cytometry, 4T1; format: cell-based, mouse; details: 6af at 12.84 µM, 6cf at 8.76 µM (respective IC50), 48 h
Protocol: as §2

[4] = system: Human cervix cancer cell line (HeLa); parameters: method as in PMID 23884119, PMID 25476168, PMID 30220830, PMID 23584541, PMID 28158265; details: literature example of Figure 1, cited from earlier work

Row | SMILES | viability at 10 µM [1] [%] | IC50 [2] [µM] | viability at 10 µM ([2]; Mus musculus) [%] | IC50 ([2]; Mus musculus) [µM] | viability at 48 h, 10 µM [3] [%] | apoptosis (total) in MCF-7 cells (MCF-7 cells) [%] | total apoptosis in 4T1 cells (4T1 cells) [%] | melting point [°C] | % Growth Inhibition at 30 μM HeLa [4] [%] | IC50 [4] [µM]
1 | C[C@H](CCC(=O)OCc1cn(CC(=O)c2ccc(Br)cc2)nn1)C1CCC2C3C(C[C@H](O)[C@@]21C)[C@@]1(C)CC[C@@H](O)CC1C[C@H]3O (stereo partly drawn) [6af, (1-(2-(4-Bromophenyl)-2-oxoethyl)-1H-1,2,3-triazol-4-yl)methyl (4R)-4-((3R,7R,10S,12S,13R)-3,7,12-trihydroxy-10,13-dimethylhexadecahydro-1H-cyclopenta[a]phenanthren-17-yl)pentanoate] | 26.5 | 12.8 ± 1.8 | 55.9 | < 19 | > 86 | 33.89 | 19.02 | 159 to 160 | – | –
2 | C[C@H](CCC(=O)NCc1cn(CC(=O)c2ccc(Cl)cc2)nn1)C1CCC2C3C(C[C@H](O)[C@@]21C)[C@@]1(C)CC[C@@H](O)CC1C[C@H]3O (stereo partly drawn) [6ce, (4R)-N-((1-(2-(4-Chlorophenyl)-2-oxoethyl)-1H-1,2,3-triazol-4-yl)methyl)-4-((3R,7R,10S,12S,13R)-3,7,12-trihydroxy-10,13-dimethylhexadecahydro-1H-cyclopenta[a]phenanthren-17-yl)pentanamide] | 69.2 | – | 50.6 | – | 92.7 | – | – | 154 to 155 | – | –
3 | C[C@H](CCC(=O)NCc1cn(CC(=O)c2ccccc2)nn1)C1CCC2C3CCC4C[C@H](O)CC[C@]4(C)C3C[C@H](O)[C@@]21C (stereo partly drawn) [6da, (4R)-4-((3R,10S,12S,13R)-3,12-Dihydroxy-10,13-dimethylhexadecahydro-1H-cyclopenta[a]phenanthren-17-yl)-N-((1-(2-oxo-2-phenylethyl)-1H-1,2,3-triazol-4-yl)methyl)pentanamide] | 91.2 | – | 99.6 | – | 97.9 | – | – | 135 to 136 | – | –
4 | Cc1ccc(C(=O)Cn2cc(CNC(=O)CC[C@@H](C)C3CCC4C5CCC6C[C@H](O)CC[C@]6(C)C5C[C@H](O)[C@@]43C)nn2)cc1 (stereo partly drawn) [6db, (4R)-4-((3R,10S,12S,13R)-3,12-Dihydroxy-10,13-dimethylhexadecahydro-1H-cyclopenta[a]phenanthren-17-yl)-N-((1-(2-oxo-2-(p-tolyl)ethyl)-1H-1,2,3-triazol-4-yl)methyl)pentanamide] | 78.7 | – | 53.7 | – | 89.4 | – | – | 112 to 115 | – | –
5 | COc1ccc(C(=O)Cn2cc(CNC(=O)CC[C@@H](C)C3CCC4C5CCC6C[C@H](O)CC[C@]6(C)C5C[C@H](O)[C@@]43C)nn2)cc1 (stereo partly drawn) [6dc, (4R)-4-((3R,10S,12S,13R)-3,12-Dihydroxy-10,13-dimethylhexadecahydro-1H-cyclopenta[a]phenanthren-17-yl)-N-((1-(2-(4-methoxyphenyl)-2-oxoethyl)-1H-1,2,3-triazol-4-yl)methyl)pentanamide] | 68.5 | – | 64.9 | – | 86.5 | – | – | 114 to 115 | – | –
6 | C[C@H](CCC(=O)NCc1cn(CC(=O)c2ccc(F)cc2)nn1)C1CCC2C3CCC4C[C@H](O)CC[C@]4(C)C3C[C@H](O)[C@@]21C (stereo partly drawn) [6dd, (4R)-4-((3R,10S,12S,13R)-3,12-Dihydroxy-10,13-dimethylhexadecahydro-1H-cyclopenta[a]phenanthren-17-yl)-N-((1-(2-(4-fluorophenyl)-2-oxoethyl)-1H-1,2,3-triazol-4-yl)methyl)pentanamide] | 73.8 | – | 89.9 | – | 81.6 | – | – | 126 to 127 | – | –
7 | C[C@H](CCC(=O)NCc1cn(CC(=O)c2ccc(Cl)cc2)nn1)C1CCC2C3CCC4C[C@H](O)CC[C@]4(C)C3C[C@H](O)[C@@]21C (stereo partly drawn) [6de, (4R)-N-((1-(2-(4-Chlorophenyl)-2-oxoethyl)-1H-1,2,3-triazol-4-yl)methyl)-4-((3R,10S,12S,13R)-3,12-dihydroxy-10,13-dimethylhexadecahydro-1H-cyclopenta[a]phenanthren-17-yl)pentanamide] | 86.8 | – | 62.9 | – | 90.5 | – | – | 100 to 101 | – | –
8 | C[C@H](CCC(=O)NCc1cn(CC(=O)c2ccc(Br)cc2)nn1)C1CCC2C3CCC4C[C@H](O)CC[C@]4(C)C3C[C@H](O)[C@@]21C (stereo partly drawn) [6df, (4R)-N-((1-(2-(4-Bromophenyl)-2-oxoethyl)-1H-1,2,3-triazol-4-yl)methyl)-4-((3R,10S,12S,13R)-3,12-dihydroxy-10,13-dimethylhexadecahydro-1H-cyclopenta[a]phenanthren-17-yl)pentanamide] | 86.5 | – | 48.4 | – | 93.5 | – | – | 135 to 136 | – | –
9 | CC(C)CCCC(C)C1CCC2C3CCC4CC(=O)C(n5cc(-c6ccccn6)nn5)CC4(C)C3CCC12C (stereo not drawn) [III] | – | – | – | – | – | – | – | – | 43.5 | –
10 | Cc1cccc(-c2cn(CC3CC4C5CC=C6CC(O)CCC6(C)C5CCC4(C)C3O)nn2)c1 (stereo not drawn) [II] | – | – | – | – | – | – | – | – | 96.9 | –
11 | COc1ccc2c(c1)CCC1C2CCC2(C)C(O)C(n3cc(-c4ccc(C(C)(C)C)cc4)nn3)CC12 (stereo not drawn) [IV] | – | – | – | – | – | – | – | – | – | 5.08
